Assay results as given in patent US8906868B2, “Aminoglycoside derivatives” (Rempex Pharmaceuticals, Inc., priority 2010, dated 2014).
≈ marks a conversion by molar mass, not a printed value. Like-named read-outs stand apart in the source and are kept apart here.

Assays:
[1] = system: Staphylococcus aureus SAM1001 ATCC 25923; assay: MIC, representative strains; type: cell-based; conditions: ATCC25923, read-out: MIC Staphylococcus aureus SAM1001 ATCC 25923
Method: (§1) To compare microbiological activity of the test compounds, minimum inhibitory concentrations (MIC.s) were determined. Antibiotic MICs were obtained using the broth microdilution method according to Clinical and Laboratory Standards Institute (CLSI) approved guidelines (Methods for dilution antimicrobial susceptibility tests for bacteria that grow aerobically; approved standard—7th ed. CLSI document M7-A7. Clinical and Laboratory Standards Institute, Wayne, Pa., incorporated herein by reference in its entirety). Antibiotics were dissolved as specified by CLSI (Performance standards for antimicrobial susceptibility testing; Seventeenth informational supplement. CLSI document M100-S17. Clinical and Laboratory Standards Institute, Wayne, Pa., incorporated herein by reference in its entirety), and were serially diluted 2-fold in cation adjusted Mueller Hinton Broth (CaMHB) at 2× concentration. Bacterial inoculums were prepared in CaMHB by suspension of a colony from an agar plate that was prepared the previous day to obtain a final concentration of 5×10^5CFU/ml. The plates were incubated for 18 hours at 35° C. […] MIC.s were determined by reading the turbidity of plate wells using a SpectraMax Plus384 plate reader (Molecular Devices, Sunnyvale, Calif., USA) at 600 nm and were confirmed by visual inspection.

[2] = system: Enterobacter cloacae ECLM1000 ATCC 13047; assay: MIC, representative strains; type: cell-based; conditions: ATCC13047, read-out: MIC Enterobacter cloacae ECLM1000 ATCC 13047
Method: as §1

[3] = system: Pseudomonas aeruginosa PAM2900 PAM2859/pXY; assay: MIC, representative strains; type: cell-based; conditions: read-out: MIC Pseudomonas aeruginosa PAM2900 PAM2859/pXY
Method: as §1

[4] = system: Citrobacter freundii CFM1000 ATCC 8090; assay: MIC, representative strains; type: cell-based; conditions: ATCC8090, read-out: MIC Citrobacter freundii CFM1000 ATCC 8090
Method: as §1

[5] = system: Pseudomonas aeruginosa PAM2859 multiple pumps deleted; assay: MIC, representative strains; type: cell-based; conditions: read-out: MIC Pseudomonas aeruginosa PAM2859 multiple pumps deleted
Method: as §1

[6] = system: Enterobacter aerogenes EAM1000 ATCC 13048; assay: MIC, representative strains; type: cell-based; conditions: Klebsiella aerogenes, ATCC13048, read-out: MIC Enterobacter aerogenes EAM1000 ATCC 13048
Method: as §1

[7] = system: PAM3072 aac(6′)-II; assay: microbe, parasite or virus in culture; type: cell-based, Pseudomonas aeruginosa; conditions: Pseudomonas aeruginosa
Procedure, shortened: (§2)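 CLSI broth microdilution used 2-fold serial dilutions in cation-adjusted Mueller Hinton broth with an inoculum of 5×10^5 CFU/ml. Plates were incubated 18 hours at 35° C. MIC was read by turbidity at 600 nm and confirmed visually.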

[8] = system: PAM3073 aac(6′)-I; assay: microbe, parasite or virus in culture; type: cell-based, Pseudomonas aeruginosa; conditions: Pseudomonas aeruginosa
Procedure, shortened: as §2

[9] = system: Acinetobacter baumannii (ATCC 19606); assay: MIC, broth microdilution; conditions: Acinetobacter baumannii
[10] = system: 143 clinical isolates of various species of Enterobacteriacea; assay: MIC against clinical isolates of Enterobacteriacea; type: cell-based; conditions: for MIC50: MIC of 50% population; for MIC50 / MIC90: 143 clinical isolates of Enterobacteriacea; for MIC90: MIC of 90% population; for share of strains of Enterobacteriacae in which the compound was more potent than the other (44 vs. 45): by ratio of MICs
Method: as §1
Table 9 summarizes results of testing 44 and 45 against 143 clinical isolates of various species of Enterobacteriacea.

[11] = system: mice; assay: Acute toxicity in mice (minimal lethal dose); type: in vivo; conditions: IV tail vein, observed 24 hours, lowest dose lethal for at least one mouse
Method: The acute toxicity of 44 was compared to that of 45 in mice. Ascending doses of each compound were administered to mice (n=3) IV through the tail vein. […] Acute toxicity was reported as the minimal lethal dose, or MLD, defined as the lowest dose of a compound that is lethal for at least one mouse.

[12] = Aminoglycoside cytotoxicity in HK-2 cells (Alamar Blue); type: cell-based, Human; conditions: human
Method: (§3) Human kidney cortex proximal tubule cells (HK-2) were purchased from ATCC and maintained according to manufacturer's recommendations in Keratinocyte Serum-Free Media (SFM; Invitrogen), with 0.05 mg/ml bovine pituitary extract and 5 ng/ml of Epidermal growth factor.
(§4) Solutions of aminoglycosides at a concentration of 50 mg/mL (both control and novel test compounds) were prepared in sterile deionized water. Before treatment of cells, the concentrated drug solutions were diluted to the appropriate concentration in Keratinocyte SFM {20, 10, 5, 2.5, 1.25, 0.6, 0.3, and 0 mM}. Pentamidine was used as a positive control.
(§5) HK-2 cells were seeded at 2.5*10^4 cells/well density in 96-well plates in Keratinocyte SFM and placed in a 37° C. tissue culture CO2 incubator. […]. Each treatment was performed in duplicate. […] Drug solutions were aspirated and replaced with 0.1 ml of 5% Alamar Blue (Abd Serotec) cell proliferation reagent in Keratinocyte SFM. Plates were read on a Molecular Devices Gemini EM fluorometer pre-warmed at 37° C. at […]. Plates were read at 0 and 4 hrs, and were incubated at 37° C. in a CO2 incubator in between reads. The fluorescence signal at the 0 h timepoint was subtracted from that at 4 h to account for background fluorescence.
(§6) The cytotoxicity data were reported as the amount of drug producing a 50% decrease in Alamar Blue signal relative to the no drug treatment control.

[13] = system: Human kidney cortex proximal tubule cells (HK-2); assay: as above; type: cell-based
Method: as §3, §4, §5, §6

[14] = system: Pseudomonas aeruginosa (ATCC 27853); assay: MIC, broth microdilution; conditions: Pseudomonas aeruginosa
[15] = system: ACM1005 ATCC 19004; assay: MIC, broth microdilution; type: cell-based, Acinetobacter baumannii; conditions: Acinetobacter baumannii, ATCC19004
Procedure, shortened: as §2

[16] = system: Klebsiella pneumonia (ATCC 43816); assay: MIC, broth microdilution; conditions: Klebsiella pneumoniae
[17] = Table 5, read-out: Compound MIC on Bacterial Strains: Pseudomonas aeruginosa PAM3072 aac(6′)-II
[18] = Table 8, read-out: MIC Pseudomonas aeruginosa PAM3072 aac(6′)-II or III
[19] = Table 5, read-out: Compound MIC on Bacterial Strains: Pseudomonas aeruginosa PAM3073 aac(6′)-I
[20] = Table 8, read-out: MIC Pseudomonas aeruginosa PAM3073 aac(6′)-I, wt efflux
[21] = ATCC19606, read-out: Compound MIC on Bacterial Strains: A. baumannii ATCC 19606
[22] = ATCC19606, read-out: MIC Acinetobacter baumannii ACM1003 ATCC 19606
[23] = ATCC27853, read-out: Compound MIC on Bacterial Strains: P. aeruginosa ATCC 27853
[24] = ATCC27853, read-out: Compound MIC on Bacterial Strains: Pseudomonas aeruginosa PAM3034 ATCC 27853
[25] = ATCC27853, read-out: MIC Pseudomonas aeruginosa PAM3034 ATCC 27853
[26] = Table 4, read-out: Compound MIC on Bacterial Strains: Acinetobacter baumannii ACM1005 ATCC 19004
[27] = Table 7, read-out: MIC Acinetobacter baumannii ACM1005 ATCC 19004
[28] = ATCC43816, read-out: Compound MIC on Bacterial Strains: K. pneumonia ATCC 43816
[29] = ATCC43816, read-out: MIC Klebsiella pneumoniae KPM1001 ATCC 43816

Structure (SMILES) | MIC [1] | MIC [2] | MIC [3] | MIC [4] | MIC [5] | MIC [6] | MIC [7, 17] | MIC [7, 18] | MIC [8, 19] | MIC [8, 20] | MIC [9, 21] | MIC [9, 22] | MIC50 [10] | MIC90 [10] | share of strains of Enterobacteriacae in which the compound was more potent than the other (44 vs. 45) [10] | minimal lethal dose (MLD) [11] | IC50 at 24 h [12] | MIC [14, 23] | MIC [14, 24] | MIC [14, 25] | further results
CN[C@@H]1C(O)[C@@H](OC2C(O)C(O[C@H]3O[C@H](CNC[C@@H](O)CO)CCC3N)[C@@H](N)C[C@H]2NC(=O)[C@@H](O)CN)OCC1(C)O (some centres unmarked) [Compound 44] | < 1 µg/mL | < 1 µg/mL | > 8 µg/mL | < 1 µg/mL | < 1 µg/mL | < 1 µg/mL | > 8 µg/mL | > 8 µg/mL | 1 to 8 µg/mL (≈ 1.64 to 13.1 µM) | 1 to 8 µg/mL (≈ 1.64 to 13.1 µM) | > 8 µg/mL | > 8 µg/mL | 0.5 µg/mL | 2 µg/mL | ~75% | > 125 mg/kg | > 20 mM | 1 to 8 µg/mL (≈ 1.64 to 13.1 µM) | 1 to 8 µg/mL (≈ 1.64 to 13.1 µM) | 1 to 8 µg/mL (≈ 1.64 to 13.1 µM) | cytotoxicity in HK-2 cells (in words) [13]: essentially non-cytotoxic; MIC [15, 26]: 1 to 8 µg/mL (≈ 1.64 to 13.1 µM); MIC [15, 27]: 1 to 8 µg/mL (≈ 1.64 to 13.1 µM); MIC [16, 28]: < 1 µg/mL; MIC [16, 29]: < 1 µg/mL
CN[C@@H]1[C@@H](O)[C@@H](O[C@@H]2[C@@H](O)[C@H](O[C@H]3O[C@H](CNC[C@H](O)CO)CC[C@H]3N)[C@@H](N)C[C@H]2NC(=O)[C@@H](O)CN)OC[C@]1(C)O [Compound 45, (S)-3-amino-N-((1R,2S,3S,4R,5S)-5-amino-4-((2R,3R,6S)-3-amino-6-(((S)-2,3-dihydroxypropylamino)methyl)tetrahydro-2H-pyran-2-yloxy)-2-((2R,3R,4R,5R)-3,5-dihydroxy-5-methyl-4-(methylamino)tetrahydro-2H-pyran-2-yloxy)-3-hydroxycyclohexyl)-2-hydroxypropanamide] | < 1 µg/mL | < 1 µg/mL | > 8 µg/mL | < 1 µg/mL | < 1 µg/mL | 1 to 8 µg/mL (≈ 1.64 to 13.1 µM) | > 8 µg/mL | > 8 µg/mL | 1 to 8 µg/mL (≈ 1.64 to 13.1 µM) | 1 to 8 µg/mL (≈ 1.64 to 13.1 µM) | > 8 µg/mL | > 8 µg/mL | 1 µg/mL | 2 µg/mL | less than 2% | 100 mg/kg | 10 mM | 1 to 8 µg/mL (≈ 1.64 to 13.1 µM) | 1 to 8 µg/mL (≈ 1.64 to 13.1 µM) | 1 to 8 µg/mL (≈ 1.64 to 13.1 µM) | fold more cytotoxic than compound 44 ([13]; human, 48 h): at least 2 fold; MIC [15, 26]: 1 to 8 µg/mL (≈ 1.64 to 13.1 µM); MIC [15, 27]: 1 to 8 µg/mL (≈ 1.64 to 13.1 µM); MIC [16, 28]: < 1 µg/mL; MIC [16, 29]: < 1 µg/mL
